The values that follow come from patent US20240270809A1, “ORAL GLP RECEPTOR AGONISTS” (priority 2020, published 2024).

SMILES strings stand for the structures. Positions of bridges follow the written chain, without caps; N, C: chain ends. Non-standard residues stand in square brackets, D forms with d. Residues, ends and D or L forms follow the SMILES beside them. *: point of attachment. Malonyl(2,2-Me2,histaminyl) = CC(C)(C(=O)NCCc1cnc[nH]1)C(=O)*; Ala(1H-tetrazol-5-yl) = N[C@@H](Cc1nnn[nH]1)C(=O)O; αMePhe(2-F) = C[C@](N)(Cc1ccccc1F)C(=O)O; d(αMeF) = C[C@@](N)(Cc1ccccc1)C(=O)O; αMeL = CC(C)C[C@](C)(N)C(=O)O; Nle = CCCC[C@H](N)C(=O)O; Aib = CC(C)(N)C(=O)O

One data set addresses T1, human GLP1 receptor (Homo sapiens, UniProt P43220).
T1 construct: expressed in transfected cells; host or cells: HEK cells, BacMam virus transduction
The data set is described as follows: cAMP accumulation assay, functional agonism of human GLP1 receptor. Type of data set: cell-based. The settings on record: HEK cells infected with human GLP1 receptor BacMam virus, HTRF cAMP; for Emax: HEK293, read-out: Human GLP-1R agonist cAMP Emax; for EC50: read-out: Human GLP-1R agonist cAMP pEC50 (converted). In outline:
(§1)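 Steps: infect HEK cells with human GLP1 or GLP2 receptor BacMam for 24 hours; freeze; resuspend in HBSS with 0.5 mM IBMX; incubate with agonist 45 min at 37° C; lyse with HTRF detection reagents and read cAMP.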

The target in a further data set is T2, human GLP2 receptor (Homo sapiens, UniProt O95838).
T2 construct: expressed in transfected cells; host or cells: HEK cells, BacMam virus transduction
T2 sequence (O95838 1-553): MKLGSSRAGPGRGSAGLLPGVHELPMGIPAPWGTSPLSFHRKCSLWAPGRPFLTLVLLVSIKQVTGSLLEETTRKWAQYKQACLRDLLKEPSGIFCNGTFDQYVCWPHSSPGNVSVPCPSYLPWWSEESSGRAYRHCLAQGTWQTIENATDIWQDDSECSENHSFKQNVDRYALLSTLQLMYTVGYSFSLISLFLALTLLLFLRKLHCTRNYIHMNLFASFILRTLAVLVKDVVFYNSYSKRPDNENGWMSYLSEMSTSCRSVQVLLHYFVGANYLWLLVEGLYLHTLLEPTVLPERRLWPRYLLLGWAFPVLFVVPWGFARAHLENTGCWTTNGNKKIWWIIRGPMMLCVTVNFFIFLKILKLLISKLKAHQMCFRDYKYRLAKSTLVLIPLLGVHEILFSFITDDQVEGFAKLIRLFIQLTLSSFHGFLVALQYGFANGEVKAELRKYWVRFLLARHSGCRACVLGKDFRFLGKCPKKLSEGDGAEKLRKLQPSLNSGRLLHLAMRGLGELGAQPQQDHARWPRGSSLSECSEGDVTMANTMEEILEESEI
The data set is described as follows: cAMP accumulation assay, functional agonism of human GLP2 receptor. As to conditions: HEK cells infected with human GLP2 receptor BacMam virus, HTRF cAMP; for Emax: HEK293, read-out: Human GLP-2R agonist cAMP Emax; for EC50: read-out: Human GLP-2R agonist cAMP pEC50 (converted). Type of data set: cell-based. The method, boiled down:
as §1
A general note: Changes in cAMP serve as a functional read-out for many G protein-coupled receptors.

A short description of data set [1]: Stability of peptides in rat intestinal fluid (ratIF). As to conditions: Sprague Dawley, undiluted rat small intestinal fluid (ratIF).
Procedure: Peptides were tested for in vitro stability in native intestinal fluid obtained from the rat small intestine. Rat Sprague Dawley Small Intestinal Fluid (ratIF) (from Biotrend art. no. RSD-SIF-MI-30ML, undiluted) was preincubated for 15 min at 37° C. and spiked with test and reference item working solutions. Experiments were conducted in duplicate in a non-serial manner. The total incubation volume per replicate was 150 μl. […] All samples and calibration standards (prepared in ratIF) were precipitated by addition of 300 μl precipitant (ACN / 2% acetic acid / 0.2% HFBA, (precipitation regent, PR)) containing internal standards (ISTD) to 150 μl sample. After incubation for 1 h at room temperature all samples were centrifuged for 10 min at 2,200×g (room temperature).
For a further data set, the target named is T3, mouse GLP2 receptor (Mus musculus, UniProt Q5IXF8).
T3 construct: expressed in transfected cells; host or cells: HEK cells, transient transfection with GeneJuice
T3 sequence (Q5IXF8 1-512): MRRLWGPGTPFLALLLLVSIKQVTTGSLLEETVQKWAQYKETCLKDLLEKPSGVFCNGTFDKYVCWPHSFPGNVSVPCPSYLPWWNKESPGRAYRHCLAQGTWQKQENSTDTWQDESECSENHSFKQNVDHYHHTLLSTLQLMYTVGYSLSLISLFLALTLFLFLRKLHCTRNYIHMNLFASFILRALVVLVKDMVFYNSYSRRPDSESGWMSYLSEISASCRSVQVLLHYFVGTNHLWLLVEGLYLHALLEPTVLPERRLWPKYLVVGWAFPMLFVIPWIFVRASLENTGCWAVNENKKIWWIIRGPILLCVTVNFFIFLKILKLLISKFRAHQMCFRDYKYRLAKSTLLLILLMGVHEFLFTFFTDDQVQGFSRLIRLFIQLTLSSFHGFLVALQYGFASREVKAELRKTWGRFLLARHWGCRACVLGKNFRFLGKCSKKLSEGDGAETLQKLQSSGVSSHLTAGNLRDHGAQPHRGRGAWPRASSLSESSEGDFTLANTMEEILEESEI
Nature of the data set: cAMP accumulation assay, functional agonism of mouse GLP2 receptor. The format is cell-based. As to conditions: HEK cells transiently transfected with mouse GLP2 receptor, HTRF cAMP; for Emax: HEK293, read-out: Mouse GLP-2R agonist cAMP Emax; for EC50: read-out: Mouse GLP-2R agonist cAMP pEC50 (converted). The method, boiled down:
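Transiently transfected HEK cells (24 h, frozen, 8000/well) in HBSS with 0.5 mM IBMX exposed to compound concentration series for 45 min at 37 °C. cAMP measured by HTRF after lysis and 1 h at RT; pEC50 from four-parameter concentration-response fit.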

T1 sequence (P43220 24-463): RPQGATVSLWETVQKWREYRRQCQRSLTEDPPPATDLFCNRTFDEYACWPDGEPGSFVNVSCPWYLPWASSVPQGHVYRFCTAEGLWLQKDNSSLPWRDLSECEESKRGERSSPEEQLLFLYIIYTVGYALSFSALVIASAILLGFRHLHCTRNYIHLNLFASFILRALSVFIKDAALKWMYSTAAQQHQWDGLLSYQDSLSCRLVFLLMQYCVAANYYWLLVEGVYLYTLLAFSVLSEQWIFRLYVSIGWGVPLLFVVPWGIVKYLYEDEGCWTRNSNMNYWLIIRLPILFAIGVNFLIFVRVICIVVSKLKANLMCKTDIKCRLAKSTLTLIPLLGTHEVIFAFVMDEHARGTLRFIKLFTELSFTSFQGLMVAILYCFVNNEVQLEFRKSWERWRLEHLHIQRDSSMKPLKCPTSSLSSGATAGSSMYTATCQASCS

Take `CCCC[C@H](NC(=O)[C@H](CCC(=O)O)NC(=O)[C@@H]1CC(=O)NCCCC[C@H](NC(=O)[C@H](CCC(N)=O)NC(=O)C(C)(C)NC(=O)[C@@H](N)Cc2c[nH]cn2)C(=O)N[C@@H](CO)C(=O)N[C@@H](Cc2ccccc2)C(=O)N[C@@H](CO)C(=O)N1)C(=O)N[C@H](Cc1ccccc1)C(=O)N[C@H](C(=O)N[C@@](C)(CC(C)C)C(=O)N[C@@H](CC(C)C)C(=O)N[C@@H](CC(=O)O)C(=O)N[C@H]1CCC(=O)NCCCC[C@@H](C(=O)N[C@@H](CC(=O)O)C(=O)N[C@@H](Cc2ccccc2)C(=O)N[C@H](C(=O)N[C@H]2CCC(=O)NCCCC[C@@H](C(=O)N[C@H](C(=O)N[C@@H](CCCCN)C(N)=O)[C@@H](C)O)NC(=O)[C@H]([C@@H](C)CC)NC(=O)[C@H](CC(C)C)NC(=O)[C@H](Cc3c[nH]c4ccccc34)NC2=O)[C@@H](C)CC)NC(=O)[C@H](C)NC(=O)[C@H](C)NC(=O)[C@H](CCCCN)NC1=O)[C@@H](C)O` [Example 27] (H-H[Aib]QKSFSDE[Nle][dF]T[αMeL]LDEKAAKDFIEWLIKTK-NH2; lactam 4-8, 16-20, 24-28; N-terminus and C-terminus assumed): the Emax (in general, the size of the effect at its maximum, as opposed to the concentration needed) is 97.1% on human GLP1 receptor and 99.3% on human GLP2 receptor. For the same compound, the EC50 on human GLP1 receptor is 0.251 nM; at human GLP2 receptor it was 0.0631 nM. For the same compound, the fraction remaining (as a rule, what is left of the initial amount, in per cent) at 0.5 h in data set [1] worked out at 11%.

In the case of `CCCC[C@H](NC(=O)[C@H](CCC(=O)O)NC(=O)[C@@H]1CC(=O)NCCCC[C@H](NC(=O)[C@H](CC(=O)O)NC(=O)C(C)(C)NC(=O)[C@@H](N)Cc2c[nH]cn2)C(=O)N[C@@H](CO)C(=O)N[C@@H](Cc2ccccc2)C(=O)N[C@@H](CO)C(=O)N1)C(=O)N[C@H](Cc1ccccc1)C(=O)N[C@H](C(=O)N[C@@](C)(CC(C)C)C(=O)N[C@@H](CC(C)C)C(=O)N[C@@H](CC(=O)O)C(=O)N[C@H]1CCC(=O)NCCCC[C@@H](C(=O)N[C@@H](CC(=O)O)C(=O)N[C@@H](Cc2ccccc2)C(=O)N[C@H](C(=O)N[C@H]2CCC(=O)NCCCC[C@@H](C(=O)N[C@H](C(=O)N3CCC[C@H]3C(N)=O)[C@@H](C)O)NC(=O)[C@H]([C@@H](C)CC)NC(=O)[C@H](CC(C)C)NC(=O)[C@H](Cc3c[nH]c4ccccc34)NC2=O)[C@@H](C)CC)NC(=O)[C@H](C)NC(=O)[C@H](C)NC(=O)[C@H](CCCCN)NC1=O)[C@@H](C)O` [Example 29] (H-H[Aib]DKSFSDE[Nle][dF]T[αMeL]LDEKAAKDFIEWLIKTP-NH2; lactam 4-8, 16-20, 24-28 (inferred); C-terminus assumed), the Emax on human GLP1 receptor is 96.2%; at human GLP2 receptor, 103%; on mouse GLP2 receptor, 100%. For the same compound, the EC50 at human GLP1 receptor was 0.0501 nM; at human GLP2 receptor, 0.0316 nM; at mouse GLP2 receptor, 5.01 nM. For the same compound, the fraction remaining at 0.5 h in data set [1] was 41.3%.

As for `CCCC[C@H](NC(=O)[C@H](CCC(=O)O)NC(=O)[C@@H]1CC(=O)NCCCC[C@H](NC(=O)[C@H](CC(=O)O)NC(=O)C(C)(C)NC(=O)[C@@H](N)Cc2c[nH]cn2)C(=O)N[C@@H](CO)C(=O)N[C@@](C)(Cc2ccccc2F)C(=O)N[C@@H](CO)C(=O)N1)C(=O)N[C@H](Cc1ccccc1)C(=O)N[C@H](C(=O)N[C@@](C)(CC(C)C)C(=O)N[C@@H](CC(C)C)C(=O)N[C@@H](CC(=O)O)C(=O)N[C@H]1CCC(=O)NCCCC[C@@H](C(=O)N[C@@H](CC(=O)O)C(=O)N[C@@H](Cc2ccccc2)C(=O)N[C@H](C(=O)N[C@H]2CCC(=O)NCCCC[C@@H](C(=O)N[C@H](C(=O)N[C@@H](CCCCN)C(N)=O)[C@@H](C)O)NC(=O)[C@H]([C@@H](C)CC)NC(=O)[C@H](CC(C)C)NC(=O)[C@H](Cc3c[nH]c4ccccc34)NC2=O)[C@@H](C)CC)NC(=O)[C@H](C)NC(=O)[C@H](C)NC(=O)[C@H](CCCCN)NC1=O)[C@@H](C)O` [Example 31] (H-H[Aib]DKS[αMePhe(2-F)]SDE[Nle][dF]T[αMeL]LDEKAAKDFIEWLIKTK-NH2; lactam 4-8, 16-20, 24-28), the figures for the Emax at human GLP1 receptor, on human GLP2 receptor and on mouse GLP2 receptor were 98.3%, 103% and 102%, respectively. Besides, the figures for the EC50 at human GLP1 receptor, on human GLP2 receptor and at mouse GLP2 receptor were 0.0158 nM, 0.0398 nM and 0.158 nM, respectively. The compound further gave an amount remaining at 0.5 h in data set [1] of 24.8%.

On to `CCCC[C@H](NC(=O)[C@H](CCC(=O)O)NC(=O)[C@@H]1CC(=O)NCCCC[C@H](NC(=O)[C@H](CC(=O)O)NC(=O)C(C)(C)NC(=O)[C@@H](N)Cc2c[nH]cn2)C(=O)N[C@@H](CO)C(=O)N[C@@H](Cc2ccccc2)C(=O)N[C@@H](CO)C(=O)N1)C(=O)N[C@](C)(Cc1ccccc1)C(=O)N[C@H](C(=O)N[C@@](C)(CC(C)C)C(=O)N[C@@H](CC(C)C)C(=O)N[C@@H](CC(=O)O)C(=O)N[C@H]1CCC(=O)NCCCC[C@@H](C(=O)N[C@@H](CC(=O)O)C(=O)N[C@@H](Cc2ccccc2)C(=O)N[C@H](C(=O)N[C@H]2CCC(=O)NCCCC[C@@H](C(=O)N[C@H](C(=O)N[C@@H](CCCCN)C(N)=O)[C@@H](C)O)NC(=O)[C@H]([C@@H](C)CC)NC(=O)[C@H](CC(C)C)NC(=O)[C@H](Cc3c[nH]c4ccccc34)NC2=O)[C@@H](C)CC)NC(=O)[C@H](C)NC(=O)[C@H](C)NC(=O)[C@H](CCCCN)NC1=O)[C@@H](C)O` [Example 36] (H-H[Aib]DKSFSDE[Nle][d(αMeF)]T[αMeL]LDEKAAKDFIEWLIKTK-NH2; lactam 4-8, 16-20, 24-28; N-terminus and C-terminus assumed), for which, at human GLP1 receptor, the Emax worked out at 97.1% and the EC50 was 0.0316 nM. Also, at human GLP2 receptor, the Emax came to 104% and the EC50 is 0.0316 nM. Besides, the share remaining at 0.5 h in data set [1] was found to be 23.3%.

As for `CCCC[C@H](NC(=O)[C@H](CCC(=O)O)NC(=O)[C@@H]1CC(=O)NCCCC[C@H](NC(=O)[C@H](Cc2nn[nH]n2)NC(=O)C(C)(C)C(=O)NCCc2c[nH]cn2)C(=O)N[C@@H](CO)C(=O)N[C@@](C)(Cc2ccccc2F)C(=O)N[C@@H](CO)C(=O)N1)C(=O)N[C@H](Cc1ccccc1)C(=O)N[C@H](C(=O)N[C@@](C)(CC(C)C)C(=O)N[C@@H](CC(C)C)C(=O)N[C@@H](CC(=O)O)C(=O)N[C@H]1CCC(=O)NCCCC[C@@H](C(=O)N[C@@H](CC(=O)O)C(=O)N[C@@H](Cc2ccccc2)C(=O)N[C@H](C(=O)N[C@H]2CCC(=O)NCCCC[C@@H](C(=O)N[C@H]3CCC(=O)NCCCC[C@@H](C(N)=O)NC(=O)[C@H]([C@@H](C)O)NC(=O)[C@H]([C@@H](C)CC)NC(=O)[C@H](CCCCN)NC3=O)NC(=O)[C@H]([C@@H](C)CC)NC(=O)[C@H](CC(C)C)NC(=O)[C@H](Cc3c[nH]c4ccccc34)NC2=O)[C@@H](C)CC)NC(=O)[C@H](C)NC(=O)[C@H](C)NC(=O)[C@H](CCCCN)NC1=O)[C@@H](C)O` [Example 71] ({Malonyl(2,2-Me2,histaminyl)}-[Ala(1H-tetrazol-5-yl)]KS[αMePhe(2-F)]SDE[Nle][dF]T[αMeL]LDEKAAKDFIEWLIKEKITK-NH2; lactam 2-6, 14-18, 22-26, 27-31 (inferred); C-terminus assumed), the Emax on human GLP1 receptor turned out to be 98.2%; on human GLP2 receptor, 103%; on mouse GLP2 receptor, 89.7%. Further, the values for the EC50 at human GLP1 receptor, on human GLP2 receptor and at mouse GLP2 receptor were 0.0251 nM, 0.0251 nM and 2 nM, respectively. The amount remaining at 0.5 h in data set [1] was 73.8%.
